From patent publication US20030008807A1, “Novel signaling pathway for the production of inflammatory pain and neuropathy” (The Regents of the University of California, priority 2001, published 2003)

Experiments:
ERK1/2 = test: Epinephrine-stimulated ERK1/2 phosphorylation in cultured rat DRG neurons (Western analysis); format: cell-based
Description: Trypsin was inactivated by adding 100 μg/ml soybean trypsin inhibitor and 2.5 mg/ml MgSO4. The cells were centrifuged at 300×g for 5 min and resuspended culture media containing minimal essential medium (MEM) supplemented with 10% heat-inactivated fetal calf serum, 1×MEM vitamins, and 1000 U/ml each of penicillin and streptomycin. The culture was enriched for neurons by preplating on 100 mm culture dishes pretreated with 0.1 mg/ml poly-DL-ornithine in 15 mM sodium borate buffer. After culture for 15-20 hr, the loosely attached neuronal cells were collected and plated for 3 hr on six-well plates coated with 0.1 mg/ml poly-DL-ornithine and 1 mg/ml laminin.
After drug treatment, cells from neuron-enriched DRG cultures were collected and centrifuged at 300×g for 5 min at 4° C. […] Blots were incubated with anti-phospho-p42/44 MAP kinase antibody (diluted 1:500 in blocking buffer) overnight at 4° C. Blots were rinsed three times in PBS-T and incubated in blocking buffer containing HRP-conjugated goat anti-rabbit IgG (diluted 1:1000; Boehringer Mannheim, Indianapolis, Ind.) for 1 hr at 27° C. Immunoreactive bands were visualized by enhanced chemiluminescence (Amersham Pharmacia Biotech, Piscataway, N.J.). The membranes were then stripped of antibodies by incubation in 200 mM NaOH for 20 min at 27° C. […] After three washes in PBS-T, blots were incubated with HRP-conjugated goat anti-rabbit IgG (diluted 1:1000; Boehringer Mannheim) for 1 hr at 27° C., and immunoreactive bands were visualized by enhanced chemiluminescence and autoradiography. […] Data were normalized by dividing values obtained for phospho-ERK1 and phospho-ERK2 immunoreactivity by the value obtained for total ERK1 immunoreactivity for each sample.

[1] = system: mechanical nociceptive threshold; details: epinephrine 100 ng, 3.82 and 4.54 N/mm^2
[2] = system: mechanical nociceptive threshold; details: dose-response studies (Khasar et al., 1999b); cited from earlier work
[3] = system: mechanical nociceptive threshold; details: injected intradermally (Khasar et al., 1999b); cited from earlier work
[4] = system: mechanical nociceptive threshold; test: Epinephrine-induced mechanical hyperalgesia, Randall-Selitto paw-withdrawal test (Example 1); details: rat, in vivo
Excerpt: The nociceptive flexion reflex (Randall-Selitto paw-withdrawal test) was quantified with a Basile Analge-symeter (Stoelting, Chicago, Ill.), which applies a linearly increasing mechanical force to the dorsum of the rat's hindpaw. The mechanical nociceptive threshold was defined as the force in grams at which the rat withdrew its paw. […] They were allowed to crawl into individual cylindrical Perspex blocks and were lightly restrained there by closing both ends of the cylinder. […] The rats were allowed to acclimatize to the restrainer for 5-10 min, after which the hindpaws were exposed to the test stimulus. Three readings were taken at 5 min intervals, and their mean was considered the baseline threshold. After each drug administration, mechanical paw-withdrawal thresholds were determined again as the mean of three readings taken 20, 25, and 30 min after injection.
Inhibitors were diluted with distilled water before intra-dermal injections into the paw using a 10 μl microsyringe (Hamilton, Reno, Nev.). Injections of peptides (1 μg/2.5 μl) were always preceded by injection of distilled water (2.5 μl) to produce hypo-osmotic shock. […] Paw-withdrawal thresholds were measured again 10, 15, and 20 min after injecting the test agent. The mean of the paw-withdrawal thresholds obtained at these three times was then taken as the mechanical nociceptive threshold at the dose of the test agent used. The effect of each dose a test agent was calculated as the percentage change from baseline.

[5] = system: mechanical nociceptive threshold; test: Epinephrine-induced hyperalgesia in gonad-intact and gonadectomized male and female rats (Example 2); details: for absolute decrease in threshold after epinephrine: n=18
Description: The nociceptive flexion reflex was quantified using the Randall-Selitto paw pressure device (Analgesymeter, Stoetling, Chicago, Ill., USA), which applies a linearly increasing mechanical force to the dorsum of the rat's hind paw. The mechanical nociceptive threshold was defined as the force in grams at which the rat withdrew its paw. […] Baseline paw-withdrawal threshold was defined as the mean of six readings before test agents were injected. […] Each group of rats was treated with only one agonist and/or antagonist injected peripherally by the intradermal route. […] All behavioural testing was done between 10.00 and 16.00 h. […] The protein kinase inhibitor was separated from the distilled water by drawing up a small air bubble (<1 μL) into the syringe after drawing up the protein kinase inhibitor but before drawing up the distilled water.
A stock solution of PGE2 (4 mg/mL) was made by dissolving it in 10% ethanol in normal saline; further dilution to 100 ng was made by addition of saline. Final concentration of ethanol was <10%. […] Stock solutions (1 μg/μL) of inhibitors were stored at −20° C. […] Inhibitors were injected at a concentration of 1 μg/2.5 μL.

For `CNC[C@H](O)c1ccc(O)c(O)c1` [epinephrine], which “ERK1/2 phosphorylation (representative Western blot)” value (ERK1/2) is on record?
The value was “stimulation”.

And the “concentration at which effect on ERK phosphorylation appeared maximal” value (ERK1/2)?
Its value is 1 µM.

What about the “increase of phospho-ERK immunoreactivity over basal level” value (ERK1/2) of the same molecule?
Its value is roughly 1.7 fold.

And the “time after which ERK phosphorylation returned to basal levels” value (ERK1/2)?
Its value is 60 min.

What about the “time at which epinephrine-evoked ERK phosphorylation was greatest” value (ERK1/2) of the same molecule?
Its value is 5 min.

What about the Emax (ERK1/2; Rattus norvegicus, DRG neuron, 5 min, read-out: maximal response relative to response to NGF) of the same molecule?
Its Emax is 30 to 50%.

And the “response to VFH stimulation, wild-type vs PKCε mutant” value ([1]; female mice)?
Its value is “similar”.

And the “epinephrine-induced change in nociceptive response in PKCε-null vs wild-type” value ([1]; male mice)?
Its value is “significantly less”.

What about the “dose producing maximal hyperalgesia” value [2] of the same molecule?
The value was 100 ng.

What about the “ED50 for lowering the nociceptive threshold” value [3] of the same molecule?
The value was roughly 20 ng.

And the “decrease in mechanical nociceptive thresholds” value [4]?
The value was roughly 35%.

What about the “change in mechanical nociceptive threshold over dose range” value ([5]; epinephrine 1-1000 ng intradermal, normal male and female rats) of the same molecule?
Its value is “dose-dependent decrease”.

And the “decrease in threshold after epinephrine, gonadectomized vs gonad-intact” value ([5]; female rats, epinephrine 100 ng)?
Its value is “greater”.

And the “absolute decrease in threshold after epinephrine” value ([5]; female rats)?
Its value is 72.7 ± 0.9 g.

What about the “decrease in paw-withdrawal threshold produced by epinephrine, gonadectomized vs gonad-intact” value ([5]; male rats, epinephrine 100 ng) of the same molecule?
Its value is “no significant difference”.

And the “absolute decrease in threshold after epinephrine” value ([5]; male rats)?
Its value is 63.7 ± 0.9 g.
